≈ marks a conversion by molar mass, not a printed value. Read-outs that look alike come from different tables or passages of the source.
Experiments:
CYP 2D6 = CYP 2D6 (Homo sapiens, UniProt P10635); experiment: CYP inhibition; format: in vitro ADME
hERG = hERG (Homo sapiens, UniProt Q12809); experiment: hERG patch clamp; format: cell-based
Adrenergic α1B (R) = Adrenergic α1B (R) (Rattus norvegicus, UniProt P15823); experiment: Receptor selectivity (Cerep); format: binding
CYP 1A2 = CYP 1A2 (Homo sapiens, UniProt P05177); experiment: CYP inhibition; format: in vitro ADME
CYP 2C19 = CYP 2C19 (Homo sapiens, UniProt P33261); experiment: CYP inhibition; format: in vitro ADME
Sequence of CYP 2C19 (P33261 whole entry): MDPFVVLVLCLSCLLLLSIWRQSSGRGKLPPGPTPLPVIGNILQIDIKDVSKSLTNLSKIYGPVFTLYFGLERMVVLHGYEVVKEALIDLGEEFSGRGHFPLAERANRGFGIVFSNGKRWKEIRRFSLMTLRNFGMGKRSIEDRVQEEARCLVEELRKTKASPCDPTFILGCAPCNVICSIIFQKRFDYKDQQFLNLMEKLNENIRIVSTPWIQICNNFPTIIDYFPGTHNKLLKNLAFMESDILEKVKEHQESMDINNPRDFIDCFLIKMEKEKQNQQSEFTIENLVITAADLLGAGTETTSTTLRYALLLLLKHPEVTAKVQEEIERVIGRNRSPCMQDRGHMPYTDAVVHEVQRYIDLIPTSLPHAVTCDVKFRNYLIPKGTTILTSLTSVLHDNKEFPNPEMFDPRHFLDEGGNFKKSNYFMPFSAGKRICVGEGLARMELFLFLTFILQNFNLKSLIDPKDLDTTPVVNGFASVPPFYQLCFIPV

Rat bioavailability = conditions: in vivo
FAK [1] = biological target: T1, FAK (Homo sapiens, UniProt Q05397); experiment: FAK enzymatic assay; format: biochemical
T1 sequence (Q05397 whole entry): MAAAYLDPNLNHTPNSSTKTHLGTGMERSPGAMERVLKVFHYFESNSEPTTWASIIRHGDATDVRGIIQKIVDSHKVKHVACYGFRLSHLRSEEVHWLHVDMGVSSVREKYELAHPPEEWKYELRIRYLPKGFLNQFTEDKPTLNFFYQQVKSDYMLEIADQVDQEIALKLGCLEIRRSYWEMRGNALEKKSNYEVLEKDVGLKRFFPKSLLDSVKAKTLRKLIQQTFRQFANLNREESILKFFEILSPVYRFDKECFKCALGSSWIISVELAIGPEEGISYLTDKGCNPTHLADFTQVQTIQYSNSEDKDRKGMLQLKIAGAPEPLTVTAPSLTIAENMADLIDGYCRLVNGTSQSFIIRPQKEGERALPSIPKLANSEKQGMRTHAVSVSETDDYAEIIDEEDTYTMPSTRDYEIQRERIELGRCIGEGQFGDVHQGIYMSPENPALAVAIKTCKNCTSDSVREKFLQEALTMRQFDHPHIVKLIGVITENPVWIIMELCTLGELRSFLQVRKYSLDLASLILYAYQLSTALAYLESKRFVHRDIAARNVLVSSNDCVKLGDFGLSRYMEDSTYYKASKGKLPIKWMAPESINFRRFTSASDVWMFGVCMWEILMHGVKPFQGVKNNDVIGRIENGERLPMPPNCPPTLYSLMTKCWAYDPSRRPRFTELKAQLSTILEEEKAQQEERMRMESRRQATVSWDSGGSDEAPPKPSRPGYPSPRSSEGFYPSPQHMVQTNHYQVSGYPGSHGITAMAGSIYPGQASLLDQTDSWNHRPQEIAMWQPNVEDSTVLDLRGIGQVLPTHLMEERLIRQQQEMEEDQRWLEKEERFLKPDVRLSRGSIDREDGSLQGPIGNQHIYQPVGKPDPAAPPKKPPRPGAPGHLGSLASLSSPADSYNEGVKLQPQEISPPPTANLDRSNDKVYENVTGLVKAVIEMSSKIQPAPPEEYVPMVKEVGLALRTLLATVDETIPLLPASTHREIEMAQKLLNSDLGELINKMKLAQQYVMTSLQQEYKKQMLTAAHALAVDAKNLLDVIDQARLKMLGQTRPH

ALK [2] = biological target: T2, ALK (Homo sapiens, UniProt Q9UM73); experiment: ALK cellular assay; format: cell-based
Target sequence in this assay (Q9UM73 with tags, fused parts or gaps): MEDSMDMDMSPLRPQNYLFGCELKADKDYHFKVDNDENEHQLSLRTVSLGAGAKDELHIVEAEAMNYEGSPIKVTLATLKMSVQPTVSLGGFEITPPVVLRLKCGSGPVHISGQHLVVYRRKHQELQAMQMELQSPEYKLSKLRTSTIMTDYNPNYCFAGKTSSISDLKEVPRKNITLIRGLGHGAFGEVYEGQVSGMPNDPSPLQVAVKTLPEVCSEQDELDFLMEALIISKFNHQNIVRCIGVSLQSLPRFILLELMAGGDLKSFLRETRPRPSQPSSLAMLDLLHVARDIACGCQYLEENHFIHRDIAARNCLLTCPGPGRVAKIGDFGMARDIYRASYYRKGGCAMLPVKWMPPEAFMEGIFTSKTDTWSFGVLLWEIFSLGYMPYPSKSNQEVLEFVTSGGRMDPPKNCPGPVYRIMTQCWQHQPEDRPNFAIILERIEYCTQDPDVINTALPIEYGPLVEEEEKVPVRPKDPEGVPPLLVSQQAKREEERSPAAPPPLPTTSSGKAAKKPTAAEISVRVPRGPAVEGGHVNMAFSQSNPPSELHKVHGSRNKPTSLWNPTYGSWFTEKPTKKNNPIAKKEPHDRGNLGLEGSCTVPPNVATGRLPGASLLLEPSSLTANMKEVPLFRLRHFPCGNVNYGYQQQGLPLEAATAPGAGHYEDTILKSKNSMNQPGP

FAK [3] = biological target: T1, FAK; experiment: FAK cellular assay; format: cell-based
[4] = Experimental: The following parameters and end points were evaluated in this study: clinical signs (mortality/moribundity checks, cage side observations and food consumption, and postdose observations), body weights, veterinary physical examinations, lung evaluations, ophthalmology, electrocardiography, blood pressure and heart rate measurements, clinical pathology parameters (hematology, coagulation, clinical chemistry, urinalysis, urine chemistry, and troponin I analysis), toxicokinetic parameters, gross necropsy findings, organ weights, and histopathologic examinations.
Protein binding, mouse = format: in vitro ADME; conditions: mouse (M)
[5] = In vitro metabolic stability, mouse; format: in vitro ADME; conditions: mouse (M); read-out: In vitro metabolic stability t1/2
[6] = In vitro metabolic stability, dog; format: in vitro ADME; conditions: dog (D); read-out: In vitro metabolic stability t1/2
Equilibrium solubility = format: physicochemical; conditions: thermodynamic from solid
Protein binding, human = format: in vitro ADME; conditions: human (H)
ALK [7] = biological target: T2, ALK; experiment: ALK enzymatic assay; format: biochemical
[8] = In vitro metabolic stability, rat; format: in vitro ADME; conditions: rat (R); read-out: In vitro metabolic stability t1/2
in vivo = experiment: in vivo
Experimental: One additional group of 20 animals/sex served as the control and received the vehicle, distilled water. The drug or vehicle was administered to all groups via oral gavage, once a day for 91 consecutive days, at a dose volume of 10 mL/kg/dose. Following the dosing period, five animals/sex/group were maintained for a 4-week recovery period. Additionally, one group of three animals/sex and three groups of nine animals/sex/group served as toxicokinetic (TK) animals and received the vehicle or drug in the same manner and at the same dose levels as the main study groups.
Observations for morbidity, mortality, injury, and the availability of food and water were conducted at least twice daily for all animals. Clinical observations were conducted on main study animals weekly. Body weights were measured and recorded for all animals prior to initiation of dosing (week −1) and weekly during the study. Food consumption was measured and recorded for main study animals weekly. Ophthalmoscopic examinations were conducted on main study animals pretest and prior to the terminal and recovery necropsies. Blood samples for designated clinical pathology evaluations were collected from main study animals at the end of week 4 and at the terminal and recovery necropsies. Urine samples for urinalysis evaluations were collected from main study animals prior to the terminal and recovery necropsies. Blood samples for determination of the plasma concentrations of the drug were collected from designated TK animals at designated time points on day 1, week 4, and week 13. After the final blood collection, the TK animals were euthanized and the carcasses were discarded. At the end of the terminal and recovery periods, necropsy examinations were performed, organ weights were recorded, and selected tissues were microscopically examined.

CYP3A4 = CYP3A4 induction in vitro
Mouse bioavailability = format: in vivo; conditions: CEP-37440 as amorphous HCl salt
Caco-2 permeability = format: in vitro ADME; conditions: human
Adrenergic α1D (H) = Adrenergic α1D (H) (Homo sapiens, UniProt P25100); experiment: Receptor selectivity (Cerep); format: binding
Sequence of Adrenergic α1D (H) (P25100 whole entry): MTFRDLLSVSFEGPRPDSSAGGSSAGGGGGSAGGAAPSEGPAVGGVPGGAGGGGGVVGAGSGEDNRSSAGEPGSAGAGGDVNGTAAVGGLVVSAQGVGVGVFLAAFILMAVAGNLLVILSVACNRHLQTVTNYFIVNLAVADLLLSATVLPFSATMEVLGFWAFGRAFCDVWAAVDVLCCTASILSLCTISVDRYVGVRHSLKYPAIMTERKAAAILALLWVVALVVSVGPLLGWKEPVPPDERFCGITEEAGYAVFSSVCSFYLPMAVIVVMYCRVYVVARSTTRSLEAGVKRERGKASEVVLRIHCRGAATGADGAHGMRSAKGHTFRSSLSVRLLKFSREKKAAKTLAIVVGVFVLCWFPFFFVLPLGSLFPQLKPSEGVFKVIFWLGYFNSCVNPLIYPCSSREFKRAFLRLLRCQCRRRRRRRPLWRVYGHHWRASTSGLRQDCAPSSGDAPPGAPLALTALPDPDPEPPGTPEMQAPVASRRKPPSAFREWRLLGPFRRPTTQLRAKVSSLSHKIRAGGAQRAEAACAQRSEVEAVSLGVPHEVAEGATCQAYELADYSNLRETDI

IR = IR (Homo sapiens, UniProt P06213); experiment: biochemical
Sequence of IR (P06213 28-1382): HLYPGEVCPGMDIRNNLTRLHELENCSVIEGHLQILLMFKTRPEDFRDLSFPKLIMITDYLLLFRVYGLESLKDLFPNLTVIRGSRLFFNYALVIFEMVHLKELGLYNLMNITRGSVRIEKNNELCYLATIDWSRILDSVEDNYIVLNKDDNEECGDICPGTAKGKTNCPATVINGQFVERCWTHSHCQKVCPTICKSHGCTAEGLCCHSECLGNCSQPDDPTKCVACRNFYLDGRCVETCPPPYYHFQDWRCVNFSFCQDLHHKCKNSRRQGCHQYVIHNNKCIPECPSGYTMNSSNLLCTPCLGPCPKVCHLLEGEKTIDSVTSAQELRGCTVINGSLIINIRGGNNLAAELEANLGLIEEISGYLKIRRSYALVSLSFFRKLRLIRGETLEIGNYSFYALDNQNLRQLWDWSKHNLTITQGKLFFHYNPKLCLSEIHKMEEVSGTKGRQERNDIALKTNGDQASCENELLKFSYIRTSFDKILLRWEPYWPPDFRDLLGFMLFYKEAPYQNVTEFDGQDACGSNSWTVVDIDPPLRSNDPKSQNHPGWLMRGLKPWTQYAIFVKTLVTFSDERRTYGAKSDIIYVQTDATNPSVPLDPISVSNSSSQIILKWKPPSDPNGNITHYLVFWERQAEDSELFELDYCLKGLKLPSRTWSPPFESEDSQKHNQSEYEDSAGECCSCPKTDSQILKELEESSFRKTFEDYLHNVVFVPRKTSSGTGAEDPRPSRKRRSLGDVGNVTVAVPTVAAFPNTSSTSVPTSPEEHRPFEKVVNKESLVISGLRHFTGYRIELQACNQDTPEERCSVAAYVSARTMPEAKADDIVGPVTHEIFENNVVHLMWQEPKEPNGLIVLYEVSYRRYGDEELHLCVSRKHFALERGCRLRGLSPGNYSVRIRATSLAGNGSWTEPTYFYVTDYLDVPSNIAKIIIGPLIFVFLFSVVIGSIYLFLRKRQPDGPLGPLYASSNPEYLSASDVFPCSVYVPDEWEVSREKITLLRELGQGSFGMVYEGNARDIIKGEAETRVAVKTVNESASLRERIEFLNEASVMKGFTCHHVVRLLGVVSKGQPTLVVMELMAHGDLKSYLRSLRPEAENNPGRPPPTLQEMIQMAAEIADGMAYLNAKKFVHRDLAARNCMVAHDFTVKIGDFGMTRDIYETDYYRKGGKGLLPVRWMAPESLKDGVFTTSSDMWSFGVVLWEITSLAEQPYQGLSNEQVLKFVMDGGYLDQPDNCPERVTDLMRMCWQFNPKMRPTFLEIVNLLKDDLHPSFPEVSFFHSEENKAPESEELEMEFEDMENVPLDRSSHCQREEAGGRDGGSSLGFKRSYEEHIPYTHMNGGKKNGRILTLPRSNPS

[9] = In vitro metabolic stability, human; format: in vitro ADME; conditions: human (H); read-out: In vitro metabolic stability t1/2
CYP 2C9 = CYP 2C9 (Homo sapiens, UniProt P11712); experiment: CYP inhibition; format: in vitro ADME
[10] = In vitro metabolic stability, monkey; format: in vitro ADME; conditions: monkey (Mo); read-out: In vitro metabolic stability t1/2
Monkey bioavailability = conditions: in vivo, po
[11] = remark: listed apart in the source
Experimental: Five animals/sex were assigned to each dose group and were given daily oral doses of 0 (vehicle), 20, 40 or 80 mg/kg for up to 91 days. […] Three animals/sex/group were scheduled for termination at the end of the dosing period (Day 92) and two animals/sex/group were assigned to a 6-week non-dosing recovery phase and were terminated on Day 134.
Urine samples for urinalysis only were obtained by bladder puncture during necropsy. Urine samples for urinalysis and urine chemistry analysis were also obtained by drainage from special stainless-steel cage pans in Weeks −1, 1, 4, and 13, and from the remaining animals near the end of the recovery period.
Blood samples were collected for toxicokinetic analysis at various time points on Day 1 and during Weeks 4 and 13. […] At termination, a full necropsy was conducted on all animals, and tissues were collected, preserved, processed, and examined microscopically by a Veterinary Pathologist certified by the American College of Veterinary Pathologists.

Protein binding, dog = format: in vitro ADME; conditions: dog (D)
[12] = tested on: NCI-H2228 NSCLC tumor xenografts; experiment: Anti-tumor activity, EML4-ALK positive NCI-H2228 NSCLC xenograft; conditions: for anti-tumor efficacy: 12 days
Excerpt: (§1) Anti-Tumor Activity in EML4-ALK Positive (NCI-H2228 and NCI-H3122) NSCLC Tumor Xenografts in Mice with Oral Dosing
(§2) Generation of EML4-ALK-positive and EML4-ALK-negative NSCLC Subcutaneous Tumor Xenografts in Scid Mice Female Scid/Beige mice (6-8 weeks, Taconic, Hudson. N.Y.) were maintained 5/cage in microisolator units on a standard laboratory diet (Teklad Labchow, Harlan Teklad, Madison, Wis.). Animals were housed under humidity- and temperature controlled conditions and the light/dark cycle was set at 12-hour intervals. Mice were quarantined at least 1 week prior to experimental manipulation. […] The mice were monitored until the tumor xenograft volumes reached 200-500 mm3.
(§3) The length (L) and width (W) of each tumor were measured with vernier calipers and the mouse body weight was determined every two to three days. […] Percent tumor growth inhibition (% TGI) was calculated as follows: (tumor volume of the control group at end of treatment—tumor volume of the treated group at the end of treatment)/tumor volume of the control group at the end of treatment. […] Complete tumor regression (CR) was defined as the tumor volume of the treated group at the end of treatment being less than 5% of the tumor volume of the treated group as the start of treatment. Statistical analyses of tumor volumes and mouse body weights were carried out with the Mann-Whitney Rank Sum Test. Plasma and tumor samples were obtained at 2 hours post final dose at each dose level, and the compound levels in plasma and tumor lysates were measured by LC-MS/MS

[13] = tested on: NCI-H3122 NSCLC tumor xenografts; experiment: Anti-tumor activity, EML4-ALK positive NCI-H3122 NSCLC xenograft; conditions: for anti-tumor efficacy: 12 days
Excerpt: as §1, §2, §3

Sequence of Adrenergic α1B (R) (P15823 whole entry): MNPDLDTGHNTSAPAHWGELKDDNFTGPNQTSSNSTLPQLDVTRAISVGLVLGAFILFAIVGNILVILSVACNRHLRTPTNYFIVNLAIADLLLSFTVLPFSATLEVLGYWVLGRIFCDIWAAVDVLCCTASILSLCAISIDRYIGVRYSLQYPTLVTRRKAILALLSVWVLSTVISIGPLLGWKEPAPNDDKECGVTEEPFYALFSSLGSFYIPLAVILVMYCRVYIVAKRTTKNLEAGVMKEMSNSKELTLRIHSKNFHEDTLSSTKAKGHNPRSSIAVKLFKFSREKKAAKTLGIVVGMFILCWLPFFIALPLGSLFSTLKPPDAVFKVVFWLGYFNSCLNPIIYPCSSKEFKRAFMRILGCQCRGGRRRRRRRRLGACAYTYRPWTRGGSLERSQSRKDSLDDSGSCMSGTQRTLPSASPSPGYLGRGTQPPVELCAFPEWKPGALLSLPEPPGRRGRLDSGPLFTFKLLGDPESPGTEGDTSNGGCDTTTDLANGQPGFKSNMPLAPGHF

For COc1c(Nc2ncc(Cl)c(N[C@H]3[C@@H](C(N)=O)[C@@H]4C=C[C@H]3C4)n2)ccc2c1CC[C@@H](N1CCOCC1)CC2 [CEP-28122, (1 S,2S,3R,4R)-3-[5-chloro-2-((S)-1-methoxy-7-morpholin-4-yl-6,7,8,9-tetrahydro-5H-benzocyclohepten-2-ylamino)-pyrimidin-4-ylamino]-bicyclo[2.2.1]hept-5-ene-2-carboxylic acid amide], the IC50 (CYP 2D6) was 17300 nM, the IC50 (hERG) was over 10000 nM and the Ki (Adrenergic α1B (R)) was 2200 nM. For the same compound, the IC50 (CYP 1A2) was over 30000 nM, the IC50 (CYP 2C19) was 6800 nM and the Rat bioavailability (Rat bioavailability) was 25%. The IC50 (FAK [1]) was 29.5 nM, the IC50 (ALK [2]; 75% human plasma, read-out: ALK cellular IC50 in 75% human plasma) was 300 nM and the IC50 (ALK [2]; 75% murine plasma, read-out: ALK cellular IC50 in 75% murine plasma) was 300 nM. For the same compound, the IC50 (ALK [2]; read-out: ALK cellular IC50) was 30 nM, the IC50 (FAK [3]) was 944 nM and the morbidity or mortality ([4]; 3, 10, 20, 40 mg/kg/day oral, 4 weeks) was “did not result in any morbidity or mortality”. The “dose levels with vacuolated cells in the lungs still present after 4-week recovery” value ([4]; both, cynomolgus monkey, in vivo) was at least 20 mg/kg/day, the “dose levels with histological effects in the lung (vacuolated cells, increased lung weight)” value ([4]; both, cynomolgus monkey, in vivo, po, 4 weeks) was at least 10 mg/kg/day and the Protein binding (Protein binding, mouse) was 95 % bound. The half-life [5] was 13.2 min, the half-life [6] was 19.9 min and the solubility thermodynamic (Equilibrium solubility; pH 2, simulated gastric fluid, read-out: Equilibrium solubility at pH 2) was over 3000 µg/mL. It also gave a solubility thermodynamic (Equilibrium solubility; pH 7.4, aqueous buffer, read-out: Equilibrium solubility at pH 7.4) of 13 µg/mL (≈ 24.1 µM), a Protein binding (Protein binding, human) of 99.2 % bound and an IC50 (ALK [7]) of 3 nM. The half-life [8] was 6.7 min, the drug-related deaths (in vivo; 30, 75, 150 mg/kg/day oral, 91 days) was “no drug-related deaths” and the “dosages with adverse histopathological effects in the kidney persisting through 4-week recovery” value (in vivo; both, Sprague-Dawley, rat, in vivo, po, 91 days) was at least 75 mg/kg/day. The NOAEL at 91 days (in vivo; both, rat, in vivo, po) was 30 mg/kg/day, the “CYP3A4 induction in vitro” value (CYP3A4; @ 0.3 μM) was 0.95 fold and the “CYP3A4 induction in vitro” value (CYP3A4; @ 3.0 μM) was 1.3 fold. The Mouse bioavailability (Mouse bioavailability; CD-1 mouse) was 51%, the Mouse bioavailability (Mouse bioavailability; Scid mouse) was 71% and the Papp (Caco-2 permeability) was 12.6 ×10⁻⁶ cm/s. It also gave a Ki (Adrenergic α1D (H)) of 1100 nM, an IC50 (IR) of 996 nM and a half-life [9] of 10.3 min. For the same compound, the IC50 (CYP 2C9) was 1300 nM, the half-life [10] was under 5 min and the bioavailability (Monkey bioavailability; 10 mg/kg) was 16%. For the same compound, the bioavailability (Monkey bioavailability; 30 mg/kg) was 37%, the animals with seizures ([11]; 80 mg/kg, Days 9 and/or 10) was 2 animals and the “lung gross and histologic findings, early death animals” value ([11]; 20, 40, 80/60 mg/kg) was “pulmonary edema was identified in all dose groups”. For the same compound, the morbidity and mortality ([11]; 20, 40, 80/60 mg/kg daily, 91 days) was “morbidity and mortality in two animals dosed with 80/60 mg/kg and likely two additional animals”, the hematology changes ([11]; 80/60 mg/kg, from Day 28, returned to baseline by end of recovery) was “decrease in lymphocytes” and the “liver enzymes in surviving animals” value ([11]; 80/60 mg/kg, returned to baseline by end of recovery) was “increased alanine aminotransferase (ALT) and aspartate aminotransferase (AST)”. The Protein binding (Protein binding, dog) was 96 % bound.

With CNC(=O)c1ccccc1Nc1nc(Nc2ccc3c(c2OC)CCCC(N2CCN(CCO)CC2)C3)ncc1Cl.Cl (centres unmarked) [CEP-37440 (HCl salt), 2-(5-Chloro-2-{6-[4-(2-hydroxy-ethyl)-piperazin-1-yl]-1-methoxy-6,7,8,9-tetrahydro-5H-benzocyclohepten-2-ylamino}-pyrimidin-4-ylamino)-N-methyl-benzamide hydrochloride] the anti-tumor efficacy ([12]; 30 mg/kg bid po) was “tumor regressions”, the anti-tumor efficacy ([12]; 30 mg/kg, qd, po) was “tumor regressions” and the anti-tumor efficacy ([12]; 55 mg/kg qd po) was “tumor regressions”. For the same compound, the “tolerability, body weight” value ([12]; 12 days treatment) was “well tolerated with no overt toxicity or compound-related weight loss”, the anti-tumor efficacy ([13]; 30 mg/kg bid po) was “tumor stasis and partial regressions” and the anti-tumor efficacy ([13]; 55 mg/kg qd po) was “tumor stasis and partial regressions”. For the same compound, the “tolerability, body weight” value ([13]; 12 days treatment) was “well tolerated with no overt toxicity or compound-related weight loss (FIGS. 14 and 15), except at 30 mg/kg, bid dose”.
